From ChEMBL document CHEMBL5038661, “Identification of a Novel 2,8-Diazaspiro[4.5]decan-1-one Derivative as a Potent and Selective Dual TYK2/JAK1 Inhibitor for the Treatment of Inflammatory Bowel Disease” (J Med Chem, 2022) come the findings set out here.

The conditions of data set [1]: human, microsomes.
Data set [2] can be described thus: in vivo. To be noted: Sprague-Dawley, rat, po, 5 mg/kg.
A short description of data set [3]: in vivo. To be noted: Sprague-Dawley, rat, po, 5 mg/kg. The source holds these as a separate data set.
The nature of data set [4]: in vivo. The settings on record: Sprague-Dawley, rat, po, 5 mg/kg. This is another data set of the same source.
The nature of data set [5]: in vivo. The settings on record: Sprague-Dawley, rat, po, 5 mg/kg. The source holds these as a separate data set.
A short description of data set [6]: in vivo. The settings on record: Sprague-Dawley, rat, po, 5 mg/kg. The source holds these as a separate data set.

`[2H]C([2H])([2H])n1cc(Nc2ncc(C)c(N3CCC4(CCNC4=O)CC3)n2)cn1`: the Stability entry in data set [1] is listed as “Unstable”.
With `Cc1cnc(Nc2cnn(C)c2)nc1N1CCC2(CCNC2=O)CC1`, the Cmax (usually the maximum level reached in the sampled fluid or tissue) at 24 h in the data set “in vivo [2]” is 415 ng/mL. In addition, in “in vivo [3]”, the CL/F – broadly, the apparent clearance, not corrected for the fraction that reaches the circulation – at 24 h is 41.5 mL/min/kg. In addition, in data set [1], the Stability entry was “Stable”. The half-life – broadly, how long it takes for the measured level to halve – at 24 h in “in vivo [4]” was 2.8 h. In addition, the bioavailability (as a rule, the share of a dose that reaches the circulation, judged against a reference dose that is usually intravenous) at 24 h in the data set “in vivo [5]” was 59.3%. Moreover, the AUC(0-t) (in general, exposure summed from dosing to a finite time, without extrapolation to infinity) in “in vivo [6]” was 2100 ng·h/mL.
